Measured values reported in US8569467B2, “C-glycoside compounds, and method for preparing C-glycoside compounds” (Ecole Nationale Supérieure de Chimie de Rennes, priority 2008, dated 2013).
Several values for one entry are separate records, joined by “and”; a condition that tells them apart may be missing. Identical values can stand only once.

How the values were obtained:
[1] = Tensiometric measurements of CMC/MAC and interface tension; assay type: physicochemical; details: tensiometric measurement
Source text: Tensiometric measurements, namely the measurement of the CMC (Critical Micelle Concentration) and the MAC (Minimal Aggregation Concentration) were made on various compounds obtained according to the invention.

[2] = Effect on the cloud temperature of the reference surfactant C6E2; assay type: physicochemical
Experimental: Finally, the effects of various C-glycoside compounds obtained according to the invention on the cloud temperature of a surfactant were tested in order to evaluate the advantage thereof for the stabilisation of the formulations.
The surfactant taken as a reference is C6E2, diethylene glycol monohexylether.

[3] = C6E2 (1% weight) + product (10% weight)
[4] = C6E2 (1% weight) + product (1% weight)

Compound | CMC*/MAC** (Critical Micelle Concentration / Minimum Aggregation Concentration) [1] [mM] | γCMC/MAC*** (interface tension at the CMC/MAC) [1] | Cloud temp [2, 3] [°C] | Cloud temp [2, 4] [°C] | Cloud temp ([2]; C6E2 (1% weight) alone, reference surfactant) [°C]
C=CCC(C)(O)C[C@@H]1OC(CO)[C@@H](O)C(O)C1O (single isomer, unassigned) [5-C(Glucosyl)-4-methylpent-1-ene-4-ol, 5-(C-Glucosyl)-4-methylpent-1-ene-4-ol] | 350 | 34 Mn · m^−1 | 44 | – | –
CCCCCC(=O)CC1O[C@H](CO)[C@H](O)[C@H](O)[C@H]1O (stereo partly shown) [1-C-(Galactosyl)-heptan-2-one] | 17.5 | 30 Mn · m^−1 | – | – | –
CCCCCC(=O)C[C@@H]1OC(CO)[C@@H](O)C(O)C1O (stereo partly shown) [1-C-(Glucosyl)-heptan-2-one, 1-(C-Glucosyl)-heptan-2-one] | – | 30 Mn · m^−1 and 28 Mn · m^−1 | – | 62 | –
CCCCCC(=O)CC1O[C@H](CO)[C@@H](O[C@@H]2O[C@H](CO)[C@H](O)[C@H](O)[C@H]2O)[C@H](O)[C@H]1O (stereo partly shown) [1-C-(Lactosyl)-heptan-2-one] | 17 | 30 Mn · m^−1 | – | 58 | –
C=CCC(C)(O)CC1O[C@H](CO)[C@H](O)[C@H](O)[C@H]1O (stereo partly shown) [5-C-(Galactosyl)-4-methylpent-1-ene-4-ol] | – | – | 42 | – | –

More lines, now with the values ahead:

CMC*/MAC** (Critical Micelle Concentration / Minimum Aggregation Concentration) [1] [mM] | γCMC/MAC*** (interface tension at the CMC/MAC) [1] | Cloud temp [2, 3] [°C] | Cloud temp [2, 4] [°C] | Cloud temp ([2]; C6E2 (1% weight) alone, reference surfactant) [°C] | Compound
– | – | 39 | – | – | C=CCC(C)(O)C[C@@H]1OC(CO)[C@@H](O[C@@H]2OC(CO)[C@H](O)C(O)C2O)C(O)C1O (single isomer, unassigned) [5-C-(Lactosyl)-4-methylpent-1-ene-4-ol, 5-(C-Lactosyl)-4-methylpent-1-en-4-ol]
– | – | – | – | 34 | CCCCCCOCCOCCO [Example C6E2, diethylene glycol monohexylether, reference compound]
